From patent US20220162191A1, “SMALL MOLECULE MODULATORS OF IL-17” (LEO PHARMA A/S, priority 2019, published 2022)

biological target: T1, human IL-17AA (Homo sapiens, UniProt Q16552); test: IL-8 release assay in human epithelial keratinocytes adult (HEKa); type: cell-based; settings: 3 ng/ml human IL-17AA + 10 ng/ml human TNFalpha, 68-72 h, IL-8 by HTRF, read-out: Rel EC50 L-8 release assay
T1 construct: host or cells: HEK (human embryonic kidney) cells
T1 sequence (Q16552 24-155) 1: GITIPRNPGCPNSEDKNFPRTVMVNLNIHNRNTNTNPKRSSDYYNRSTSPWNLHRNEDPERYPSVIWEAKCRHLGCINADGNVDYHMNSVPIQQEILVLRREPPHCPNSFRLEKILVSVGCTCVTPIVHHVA
T1 sequence (Q16552 24-155) 2: T1 sequence (Q16552 24-155) 1
In short: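 IL-8 secretion, quantified by HTRF (665/620 nm) as percent of controls, served as the readout after 68–72 h culture of HEKa cells with compound plus IL-17AA (3 ng/ml final) and TNF-alpha (10 ng/ml final). Four-parameter logistic curves gave relative IC50 and Emax.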

| SMILES | EC50 [nM] |
| --- | --- |
| Cc1n[nH]c(C)c1-c1ccc(NC(=O)[C@H](Cc2cc(-c3ccnc(N4CCSCC4)n3)ccc2Cl)NC(=O)C2(F)CC2)cc1 [Example 314, N-[(1S)-1-[[2-chloro-5-(2-thiomorpholinopyrimidin-4-yl)phenyl]methyl]-2-[4-(3,5-dimethyl-1H-pyrazol-4-yl)anilino]-2-oxo-ethyl]-1-fluoro-cyclopropanecarboxamide] | < 100 |
| Cc1n[nH]c(C)c1-c1ccc(NC(=O)[C@H](Cc2cc(-c3ccnc(N4CC[S+]([O-])CC4)n3)ccc2Cl)NC(=O)C2(F)CC2)cc1 [Example 315, N-[(1S)-1-[[2-chloro-5-[2-(1-oxidothiomorpholin-1-ium-4-yl)pyrimidin-4-yl]phenyl]methyl]-2-[4-(3,5-dimethyl-1H-pyrazol-4-yl)anilino]-2-oxo-ethyl]-1-fluoro-cyclopropanecarboxamide] | < 100 |
| Cc1n[nH]c(C)c1-c1ccc(NC(=O)[C@H](Cc2cc(-c3ccnc(N4CCC5(COC5)C4)n3)ccc2Cl)NC(=O)C2(F)CC2)cc1 [Example 316, N-[(1S)-1-[[2-chloro-5-[2-(2-oxa-7-azaspiro[3.4]octan-7-yl)pyrimidin-4-yl]phenyl]methyl]-2-[4-(3,5-dimethyl-1H-pyrazol-4-yl)anilino]-2-oxo-ethyl]-1-fluoro-cyclopropanecarboxamide] | < 100 |
| Cc1n[nH]c(C)c1-c1ccc(NC(=O)[C@H](Cc2cc(-c3ccnc(N4CCC5(CC4)COC5)n3)ccc2Cl)NC(=O)C2(F)CC2)cc1 [Example 317, N-[(1S)-1-[[2-chloro-5-[2-(2-oxa-7-azaspiro[3.5]nonan-7-yl)pyrimidin-4-yl]phenyl]methyl]-2-[4-(3,5-dimethyl-1H-pyrazol-4-yl)anilino]-2-oxo-ethyl]-1-fluoro-cyclopropanecarboxamide] | < 100 |
| Cc1n[nH]c(C)c1-c1ccc(NC(=O)[C@H](Cc2cc(-c3ccnc(N4CC5COCC5C4)n3)ccc2Cl)NC(=O)C2(F)CC2)cc1 (stereo partly drawn) [Example 318, N-[(1S)-1-[[5-[2-(1,3,3a,4,6,6a-hexahydrofuro[3,4-c]pyrrol-5-yl)pyrimidin-4-yl]-2-chloro-phenyl]methyl]-2-[4-(3,5-dimethyl-1H-pyrazol-4-yl)anilino]-2-oxo-ethyl]-1-fluoro-cyclopropanecarboxamide] | < 100 |
| Cc1n[nH]c(C)c1-c1ccc(NC(=O)[C@H](Cc2cc(-c3ccnc(N4CCCC5(COC5)C4)n3)ccc2Cl)NC(=O)C2(F)CC2)cc1 [Example 319, N-[(1S)-1-[[2-chloro-5-[2-(2-oxa-8-azaspiro[3.5]nonan-8-yl)pyrimidin-4-yl]phenyl]methyl]-2-[4-(3,5-dimethyl-1H-pyrazol-4-yl)anilino]-2-oxo-ethyl]-1-fluoro-cyclopropanecarboxamide] | < 100 |
| Cc1cnn(C)c1-c1ccc(NC(=O)[C@H](Cc2cc(-c3ccc(=O)n(C(C)C)c3)ccc2Cl)NC(=O)c2cnco2)cc1 [Example 321, N-[(1S)-1-[[2-chloro-5-(1-isopropyl-6-oxo-3-pyridyl)phenyl]methyl]-2-[4-(2,4-dimethylpyrazol-3-yl)anilino]-2-oxo-ethyl]oxazole-5-carboxamide] | > 1000 |
| Cc1cnn(C)c1-c1ccc(NC(=O)[C@H](Cc2cc(-c3ccc(=O)n(C(C)C)c3)ccc2Cl)NC(=O)c2cn[nH]c2)cc1 [Example 323, N-[(1S)-1-[[2-chloro-5-(1-isopropyl-6-oxo-3-pyridyl)phenyl]methyl]-2-[4-(2,4-dimethylpyrazol-3-yl)anilino]-2-oxo-ethyl]-1H-pyrazole-4-carboxamide] | 100 to 1000 |
| Cc1cnn(C)c1-c1ccc(NC(=O)[C@H](Cc2cc(-c3ccc(=O)n(C(C)C)c3)ccc2Cl)NC(=O)c2ccno2)cc1 [Example 324, N-[(1S)-1-[[2-chloro-5-(1-isopropyl-6-oxo-3-pyridyl)phenyl]methyl]-2-[4-(2,4-dimethylpyrazol-3-yl)anilino]-2-oxo-ethyl]isoxazole-5-carboxamide] | 100 to 1000 |
| Cc1cnn(C)c1-c1ccc(NC(=O)[C@H](Cc2cc(-c3ccc(=O)n(C(C)C)c3)ccc2Cl)NC(=O)C2CCC2)cc1 [Example 325, N-[(1S)-1-[[2-chloro-5-(1-isopropyl-6-oxo-3-pyridyl)phenyl]methyl]-2-[4-(2,4-dimethylpyrazol-3-yl)anilino]-2-oxo-ethyl]cyclobutanecarboxamide] | > 1000 |
| Cc1cnn(C)c1-c1ccc(NC(=O)[C@H](Cc2cc(-c3ccc(=O)n(C(C)C)c3)ccc2Cl)NC(=O)CCC(C)C)cc1 [Example 327, N-[(1S)-1-[[2-chloro-5-(1-isopropyl-6-oxo-3-pyridyl)phenyl]methyl]-2-[4-(2,4-dimethylpyrazol-3-yl)anilino]-2-oxo-ethyl]-4-methyl-pentanamide] | 100 to 1000 |
| Cc1cnn(C)c1-c1ccc(NC(=O)[C@H](Cc2cc(-c3ccc(=O)n(C(C)C)c3)ccc2Cl)NC(=O)C(C)C)cc1 [Example 328, N-[(1S)-1-[[2-chloro-5-(1-isopropyl-6-oxo-3-pyridyl)phenyl]methyl]-2-[4-(2,4-dimethylpyrazol-3-yl)anilino]-2-oxo-ethyl]-2-methyl-propanamide] | > 1000 |
| Cc1cnn(C)c1-c1ccc(NC(=O)[C@H](Cc2cc(-c3ccc(=O)n(C(C)C)c3)ccc2Cl)NC(=O)C2CC2)cc1 [Example 329, N-[(1S)-1-[[2-chloro-5-(1-isopropyl-6-oxo-3-pyridyl)phenyl]methyl]-2-[4-(2,4-dimethylpyrazol-3-yl)anilino]-2-oxo-ethyl]cyclopropanecarboxamide] | 100 to 1000 |
| CCCC(=O)N[C@@H](Cc1cc(-c2ccc(=O)n(C(C)C)c2)ccc1Cl)C(=O)Nc1ccc(-c2c(C)cnn2C)cc1 [Example 330, N-[(1S)-1-[[2-chloro-5-(1-isopropyl-6-oxo-3-pyridyl)phenyl]methyl]-2-[4-(2,4-dimethylpyrazol-3-yl)anilino]-2-oxo-ethyl]butanamide] | 100 to 1000 |
| Cc1cnn(C)c1-c1ccc(NC(=O)[C@H](Cc2cc(-c3ccc(=O)n(C(C)C)c3)ccc2Cl)NC(=O)C2(F)CCC2)cc1 [Example 331, N-[(1S)-1-[[2-chloro-5-(1-isopropyl-6-oxo-3-pyridyl)phenyl]methyl]-2-[4-(2,4-dimethylpyrazol-3-yl)anilino]-2-oxo-ethyl]-1-fluoro-cyclobutanecarboxamide] | < 100 |
| Cc1cnn(C)c1-c1ccc(NC(=O)[C@H](Cc2cc(-c3ccc(=O)n(C(C)C)c3)ccc2Cl)NC(=O)C(C)C2CC2)cc1 (stereo partly drawn) [Example 332, (2S)-3-[2-chloro-5-(1-isopropyl-6-oxo-3-pyridyl)phenyl]-2-(2-cyclopropylpropanoylamino)-[4-(2,4-dimethylpyrazol-3-yl)phenyl]propanamide] | > 1000 |
| Cc1cnn(C)c1-c1ccc(NC(=O)[C@H](Cc2cc(-c3ccc(=O)n(C(C)C)c3)ccc2Cl)NC(=O)c2cocn2)cc1 [Example 333, N-[(1S)-1-[[2-chloro-5-(1-isopropyl-6-oxo-3-pyridyl)phenyl]methyl]-2-[4-(2,4-dimethylpyrazol-3-yl)anilino]-2-oxo-ethyl]oxazole-4-carboxamide] | > 1000 |
| Cc1cnn(C)c1-c1ccc(NC(=O)[C@H](Cc2cc(-c3ccc(=O)n(C(C)C)c3)ccc2Cl)NC(=O)C2(C)CC2)cc1 [Example 334, N-[(1S)-1-[[2-chloro-5-(1-isopropyl-6-oxo-3-pyridyl)phenyl]methyl]-2-[4-(2,4-dimethylpyrazol-3-yl)anilino]-2-oxo-ethyl]-1-methyl-cyclopropanecarboxamide] | 100 to 1000 |
